{"source": "patent US20170369677A1", "about": "“MATERIALS FREE OF ENDOCRINE DISRUPTIVE ACTIVITY” (CertiChem, Inc., priority 2006, published 2017)", "origin": "cited, not measured here", "key": {"[1]": {"conditions": "for Carcinogenic or Other Toxic Effects: common pigments used in plastic formulations, Table P-3"}, "[2]": {"tested_on": "snails, fish, frogs, and rodents"}, "[3]": {"conditions": "statement in words"}, "[4]": {"tested_on": "ER", "conditions": "statement in words"}, "[5]": {"conditions": "recommended daily dietary allowance for these antioxidants"}}, "note": "Where two headings read alike, the source gives them in different places."}
{"compound": "[C-]#N.[C-]#N.[C-]#N.[C-]#N.[C-]#N.[C-]#N.[Fe+2].[Fe+3].[NH4+]", "note": "[Ferric amonimum, ferric amonimum ferrocyanide]", "values": [{"measurement": "Carcinogenic or Other Toxic Effects", "setting": "[1]", "result": "Yes"}]}
{"compound": "CC(C)(c1ccc(O)cc1)c1ccc(O)cc1", "note": "[Bisphenol A]", "values": [{"measurement": "dose at which deleterious developmental changes have been reported", "setting": "[2]", "result": "0.5 to 2", "unit": "µg/kg/day"}, {"measurement": "dose at which deleterious developmental changes have been reported", "setting": "[2]; listed as bisphenol A", "result": "0.5 to 2", "unit": "µg/kg/day"}, {"measurement": "estrogenic or androgenic activity", "setting": "[3]", "result": "deleterious estrogenic activity"}, {"measurement": "levels in human umbilical cords", "result": "0.2 to 2", "unit": "µg/kg"}]}
{"compound": "CC(C)(C)c1cc(Cc2cc(C(C)(C)C)c(O)c(C(C)(C)C)c2)cc(C(C)(C)C)c1O", "note": "[4,4′-methylenebis (2,6-di-t-butylphenol)]", "values": [{"measurement": "ER binding activity observed", "setting": "[4]", "result": "lack of binding activity"}]}
{"compound": "CCCOC(=O)c1cc(O)c(O)c(O)c1", "note": "[Propyl gallate]", "values": [{"measurement": "ADI", "setting": "[5]", "result": "0 to 2.5", "unit": "mg/kg"}]}
{"compound": "C[C@]12CCC(=O)C[C@@H]1CC[C@@H]1[C@@H]2CC[C@]2(C)[C@@H](O)CC[C@@H]12", "note": "[DHT, 5a-dihydrotestosterone, reference compound]", "values": [{"measurement": "estrogenic or androgenic activity", "setting": "[3]", "result": "strong androgen"}]}
{"compound": "CC(C)(C)c1cc(O)ccc1O", "note": "[TBHQ, Tert-Butylhydroquinone]", "values": [{"measurement": "ADI", "setting": "[5]", "result": "0 to 0.2", "unit": "mg/kg"}]}
{"compound": "Cc1cc(C(C)(C)C)c(O)c(C(C)(C)C)c1", "note": "[BHT, Butylated hydroxytoulene]", "values": [{"measurement": "estrogenic or androgenic activity", "setting": "[3]", "result": "has estrogenic activity"}, {"measurement": "ADI", "setting": "[5]", "result": "0 to 0.125", "unit": "mg/kg"}]}
{"compound": "O=C(O)c1ccc(C(=O)O)cc1", "note": "[Terephthalic, terephthalic acid]", "values": [{"measurement": "estrogenic or androgenic activity", "setting": "[3]", "result": "deleterious estrogenic activity"}]}
{"compound": "COc1ccc(O)c(C(C)(C)C)c1", "note": "[BHA, Butylated hydroxyanisole]", "values": [{"measurement": "ADI", "setting": "[5]", "result": "0 to 0.5", "unit": "mg/kg"}]}
{"compound": "C=CCl", "note": "[Vinylchloride]", "values": [{"measurement": "toxic effects stated in text", "setting": "[1]; statement in words", "result": "other toxic effects"}]}
{"compound": "C[C@]12CC[C@@H]3c4ccc(O)cc4CC[C@H]3[C@@H]1CC[C@@H]2O", "note": "[17β-estradiol (E2), 17β-estradiol, reference compound]", "values": [{"measurement": "estrogenic or androgenic activity", "setting": "[3]", "result": "strong estrogen"}]}
{"compound": "C=C", "note": "[Ethylene]", "values": [{"measurement": "estrogenic or androgenic activity", "setting": "[3]", "result": "no known estrogenic activity or other deleterious effects"}]}
{"compound": "CC(=O)[C@H]1CC[C@H]2[C@@H]3CCC4=CC(=O)CC[C@]4(C)[C@H]3CC[C@]12C", "note": "[progesterone]", "values": [{"measurement": "estrogenic or androgenic activity", "setting": "[3]", "result": "androgenic, but no known estrogenic, activity"}]}
{"compound": "Tocopherols", "values": [{"measurement": "ADI", "setting": "[5]", "result": "0.15 to 2", "unit": "mg/kg"}]}
{"compound": "[O]=[Mo](=[O])([O-])[O-].[Pb+2]", "note": "[Lead molybdate]", "values": [{"measurement": "Carcinogenic or Other Toxic Effects", "setting": "[1]", "result": "Yes"}]}
{"compound": "CC(C)CCC[C@@H](C)[C@H]1CC[C@H]2[C@@H]3CC=C4C[C@@H](O)CC[C@]4(C)[C@H]3CC[C@]12C", "note": "[Cholesterol]", "values": [{"measurement": "estrogenic or androgenic activity", "setting": "[3]", "result": "little or no known estrogenic or androgenic activity"}]}
